Measurements: patent publication EP4711372A1, “CRYSTAL FORM OF HETEROCYCLIC COMPOUND, SALT THEREOF, CRYSTAL FORM OF SALT THEREOF, AND USE” (Hubei Bio-Pharmaceutical Industrial Technological Institute …, priority 2023, dated 2024)
pIC50: −log10 of the molar value. Each block holds one compound with its values, some of them ahead of it.

Experiments:
[1] = Pharmacokinetics in mice (oral gavage); format: in vivo; conditions: mouse, plasma, male CD-1 mice, 10 mg/kg
Experimental: The pharmacokinetic properties of the compounds obtained in Example 1 in mice were determined with reference to the following experimental methods.
Three male CD-1 mice were administered by oral gavage at a dose of 10 mg/kg, and the vehicle was 5% DMSO + 10% Solutol + 85% Saline. The mice were fasted overnight, and the time points of blood collection were before administration and at 15 minutes, 30 minutes, 1 hour, 2 hours, 4 hours, 8 hours, and 24 hours after administration. Blood samples were centrifuged at 6,800 g for 6 minutes at 2 to 8°C, and plasma was collected and stored at - 80°C. 10 µL of plasma at each time point was taken and added with 200 µL of methanol containing 100 ng/mL internal standard. The mixture was vortexed, mixed well, and centrifuged at 18,000 g for 7 minutes at 2 to 8°C. 200 µL of the mixture was transferred to a 96-well injection plate for LC-MS/MS quantitative analysis. The main pharmacokinetic parameters were analyzed using WinNonlin 7.0 software with non-compartmental model.

[2] = molecular target: T1, 15-PGDH (Homo sapiens, UniProt P15428); assay: 15-PGDH enzyme inhibition assay (fluorescence, NAD+/PGE2); format: biochemical; conditions: 15-PGDH inhibition
T1 construct: purchased R&D Systems 5660-DH-010
T1 sequence (P15428 1-266): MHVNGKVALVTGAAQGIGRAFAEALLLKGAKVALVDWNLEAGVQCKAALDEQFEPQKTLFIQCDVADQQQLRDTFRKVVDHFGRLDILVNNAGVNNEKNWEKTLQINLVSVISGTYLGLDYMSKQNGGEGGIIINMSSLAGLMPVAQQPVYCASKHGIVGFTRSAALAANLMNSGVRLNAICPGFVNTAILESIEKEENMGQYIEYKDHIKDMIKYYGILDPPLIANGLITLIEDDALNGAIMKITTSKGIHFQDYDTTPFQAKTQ
Experimental: 15-PGDH (R&D Systems, Cat. No. 5660-DH-010) was prepared to twice the final concentration, i.e., 30 nM, using Assay Buffer (50 mM Tris-HCl, pH 7.5, 0.01% Tween 20 by volume). 15-PGDH was then added to a 384-well white plate (Cisbio Bioassays, Cat. No. 66PL384025) at 8 µL/well. Negative control wells (with Assay Buffer only and without enzyme) were set. The compound was then prepared to 4 times the final concentration using Assay Buffer, i.e., diluted 3-fold to 10 concentrations starting from 4000 nM. The compound was added to the above white plate at 4 µL/well, mixed well, centrifuged at 1000 rpm for 1 minute, and incubated at 25°C for 10 minutes. Both positive control wells (with 15-PGDH only) and negative control wells (without 15-PGDH) were set. A mixture of NAD^+ (Select, Cat. No. S2518) and PGE2 (R&D Systems, Cat. No.:2296110) was then prepared using Assay Buffer. NAD^+ and PGE2 were prepared to four times their final concentrations, i.e., 2 mM and 0.12 mM, respectively, using Assay Buffer. The mixture was then added to the above white plate at 4 µL/well, mixed well, centrifuged at 1000 rpm for 1 minute, and incubated at 25°C for 30 minutes for the reaction. The fluorescence was measured at an excitation wavelength of 340 nm and an emission wavelength of 485 nm using a TECAN SPARK 20M microplate reader. The IC50 value was calculated using four-parameter fitting with GraphPad Prism 8.0.

[3] = system: IBD in mice; assay: Efficacy on IBD in mice (DSS-induced); format: in vivo, C57BL/6 mice; conditions: for CL (colon length) / CL/CW/BW / CW (colon weight) / DAI / body weight / inflammatory cell infiltration score (histopathological examination of colon tissues) / tissue injury score (histopathological examination of colon tissues): compared with G2 model group; for Colon length CL / Colon weight CW: day 0 to day 9, necropsy day 10
Experimental: The mice in G2 to G6 were given 2% DSS aqueous solution on day 0 to day 6, normal water on […], vehicle/positive/test substance on day 0 to day 9, and euthanized on day 10 for necropsy. Colon weight (CW) and colon length (CL) were measured and colon tissues […] were subjected to histopathological examination.

[4] = system: mouse IPF prevention model; assay: Efficacy test on mouse IPF prevention model (Bleomycin-induced); format: in vivo, mice; conditions: mean, oral gavage, 21 consecutive days
Experimental: Male mice were adaptively fed for 1 to 2 weeks and after reaching the standard weight (25 g), the IPF model (idiopathic pulmonary fibrosis model) was induced with a certain dose of Bleomycin. On the day of modeling, the animals were randomly divided into a model group and an administration group according to their weight, in which the administration groups were administered Nintedanib (60 mg/kg, once a day (qd)) and compound I-3B obtained in Example 1 (2.5 mg/kg, twice a day (bid)) by oral gavage for 21 consecutive days while the vehicle control group was administered blank vehicle. During the administration period, the animals were weighed every 3 days. At the end of the last day of administration, the animals were euthanized. The lungs were removed from the thyroid cartilage (without perfusion), slowly perfused with 10% formalin until both lungs were filled, and fixed in 10% formalin 5 to 10 times the volume of the tissues after the trachea was ligated. The left lung tissues were embedded in paraffin wax, sectioned, and stained with HE and Masson Trichrome. The sections were subjected to panoramic scanning using a Hamamatsu NanoZoomer Digital Pathology (S210) slide scanner for pathological analysis.

[5] = system: mouse IPF treatment model; assay: Efficacy test on mouse IPF treatment model (Bleomycin-induced); format: in vivo, mice; conditions: mean, oral gavage, 14 consecutive days from day 7
Experimental: Male mice were adaptively fed for 1 to 2 weeks and after reaching the standard weight (25 g), the IPF model (idiopathic pulmonary fibrosis model) was induced with a certain dose of Bleomycin. On the day of modeling, the animals were randomly divided into a model group and an administration group according to their weight, in which the administration groups were administered Nintedanib (60 mg/kg, qd), low-dose compound I-3B obtained in Example 1 (1 mg/kg, bid), and high-dose compound I-3B obtained in Example 1 (2.5 mg/kg, bid) by oral gavage for 14 consecutive days starting from day 7 while the vehicle control group was administered blank vehicle. During the administration period, the animals were weighed twice a week. At the end of the last day of administration, the animals were euthanized. The lungs were removed from the thyroid cartilage (without perfusion), slowly perfused with 10% formalin until both lungs were filled, and fixed in 10% formalin 5 to 10 times the volume of the tissues after the trachea was ligated. The left lung tissues were embedded in paraffin wax, sectioned, and stained with HE and Masson Trichrome. The sections were subjected to panoramic scanning using a Hamamatsu NanoZoomer Digital Pathology (S210) slide scanner for pathological analysis.

AUC(0-t) [1]: 33200 ng·h/mL
Cmax [1]: 4480 ng/mL
pIC50 [2]: 8.45
Structure (SMILES): Cn1nc2cc(N3C[C@H]4C[C@H]4c4cc(C(=O)N5CCC(F)(F)CC5)cnc43)ccn2c1=O (single isomer, unassigned) [compound I-3B]
IBD symptoms and tissue injury in mice ([3]; 2.5 mg/kg and 5 mg/kg, efficacy better than that of the positive control): significantly improve
CL (colon length) ([3]; G4, 2.5 mg/kg-bid): significant increase
CL/CW/BW ([3]; G4, 2.5 mg/kg-bid): significant decrease
CW (colon weight) ([3]; G4, 2.5 mg/kg-bid): significant decrease
DAI ([3]; G4, 2.5 mg/kg-bid): significant decrease
body weight ([3]; G4, 2.5 mg/kg-bid): increase
inflammatory cell infiltration score (histopathological examination of colon tissues) ([3]; G4, 2.5 mg/kg-bid): significant decrease
tissue injury score (histopathological examination of colon tissues) ([3]; G4, 2.5 mg/kg-bid): significant decrease
CL (colon length) ([3]; G5, 5 mg/kg-bid): significant increase
CL/CW/BW ([3]; G5, 5 mg/kg-bid): significant decrease
CW (colon weight) ([3]; G5, 5 mg/kg-bid): significant decrease
DAI ([3]; G5, 5 mg/kg-bid): significant decrease
body weight ([3]; G5, 5 mg/kg-bid): significant increase
inflammatory cell infiltration score (histopathological examination of colon tissues) ([3]; G5, 5 mg/kg-bid): significant decrease
tissue injury score (histopathological examination of colon tissues) ([3]; G5, 5 mg/kg-bid): significant decrease
Colon length CL ([3]; high-dose group (5 mg/kg)): 6.50 cm
Colon weight CW ([3]; high-dose group (5 mg/kg)): 0.16 g
Colon length CL ([3]; low-dose group (2.5 mg/kg)): 6.67 cm
Colon weight CW ([3]; low-dose group (2.5 mg/kg)): 0.17 g
Total pulmonary fibrosis score ([4]; compound I-3B 2.5 mg/kg bid): 3.34
Total pulmonary fibrosis score ([5]; high-dose 2.5 mg/kg bid): 2.6
Total pulmonary fibrosis score ([5]; low-dose 1 mg/kg bid): 2.74

Structure (SMILES): COC(=O)c1ccc2c(c1)NC(=O)/C2=C(\Nc1ccc(N(C)C(=O)CN2CCN(C)CC2)cc1)c1ccccc1 [Nintedanib, reference compound]
Total pulmonary fibrosis score ([4]; Nintedanib 60 mg/kg qd): 3.39
Total pulmonary fibrosis score ([5]; Nintedanib 60 mg/kg qd): 2.84
